Reference: ChEMBL document CHEMBL6092164, “Rational design, synthesis, and biophysical characterization of a peptidic MDM2-MDM4 interaction inhibitor” (Bioorg Med Chem, 2024)

Biological target: E3 ubiquitin-protein ligase Mdm2 (Homo sapiens, UniProt Q00987)
Assay: Binding affinity to RED dye fluorescently labelled full length human recombinant GST-tagged MDM2 expressed in Escherichia coli BL21 cells assessed as dissociation constant incubated for 60 mins in dark by Microscale Thermophoresis assay

Sequence of E3 ubiquitin-protein ligase Mdm2 (Q00987 whole entry): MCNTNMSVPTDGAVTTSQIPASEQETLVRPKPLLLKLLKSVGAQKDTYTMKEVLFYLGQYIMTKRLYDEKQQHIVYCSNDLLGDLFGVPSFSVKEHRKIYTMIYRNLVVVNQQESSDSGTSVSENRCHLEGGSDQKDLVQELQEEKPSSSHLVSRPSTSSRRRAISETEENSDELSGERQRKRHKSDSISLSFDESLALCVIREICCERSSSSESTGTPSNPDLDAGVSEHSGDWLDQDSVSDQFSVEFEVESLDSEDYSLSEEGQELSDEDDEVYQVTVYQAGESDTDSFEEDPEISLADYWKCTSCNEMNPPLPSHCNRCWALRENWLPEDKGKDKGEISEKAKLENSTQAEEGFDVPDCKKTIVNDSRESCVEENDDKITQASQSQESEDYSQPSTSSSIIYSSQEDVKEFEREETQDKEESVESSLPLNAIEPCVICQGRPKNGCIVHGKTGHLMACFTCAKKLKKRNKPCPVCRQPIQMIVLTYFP

Substance | Kd [µM]
H-KVFIA-OH | 19.2
H-VAIKF-OH | > 1000
